According to patent US7468375B2 (Pfizer Inc., priority 2004, dated 2008):
Like-named read-outs stand apart in the source and are kept apart here.

How the values were obtained:
[1] = biological target: T1, Full-length wild type HIV-1 integrase (SF1) (Human immunodeficiency virus type 1 group M subtype B, UniProt P04585); assay: Integrase strand-transfer scintillation proximity assay; assay type: biochemical; conditions: strand transfer, 50 min at 37° C., 246 nM integrase, 50 nM host DNA; read-out: IC50
T1 construct: made in house; host or cells: E. coli BL21 (DE3)
From the text: Integrase Strand-Transfer Scintillation Proximity Assay Oligonucleotides
Oligonucleotide #1-5′-(biotin)[…]-3′ (SEQ ID NO: 1) and oligonucleotide #2-5′-[…]-3′ (SEQ ID NO: 2), were synthesized by TriLink BioTechnologies, Inc. (San Diego, Calif.). The annealed product represents preprocessed viral ds-DNA derived from the LTR U5 sequence of the viral genome. A ds-DNA control to test for non-specific interactions was made using a 3′ di-deoxy derivative of oligonucleotide #1 annealed to oligonucleotide #2. The CA overhang at the 5′ end of the non-biotinylated strand of the ds-DNA was created artificially by using a complimentary DNA oligonucleotide shortened by 2 base pairs. This configuration eliminates the requisite 3′ processing step of the integrase enzyme prior to the strand-transfer mechanism. Host ds-DNA was prepared as an unlabeled and [^3H]-thymidine labeled product from annealed oligonucleotide #3-5-[…]-3′ (SEQ ID NO: 3), and oligonucleotide #4-5′-[…]-3′ (SEQ ID NO: 4), both synthesized by TriLink BioTechnologies, Inc. (San Diego, Calif.). The annealed product had overhanging 3′ ends of poly(dA). Host DNA was custom radiolabeled by PerkinElmer Life Sciences Inc. (Boston, Mass.) using an enzymatic method with a 12/1 ratio of [methyl-3H]dTTP/cold ds-DNA to yield 5′-blunt end ds-DNA with a specific activity of >900 Ci/mmol. The radiolabeled product was purified using a NENSORB cartridge and stored in stabilized aqueous solution (PerkinElmer). The final radiolabeled product had six [^3H]-thymidine nucleotides at both 5′ ends of the host ds-DNA. Reagents: Streptavidin-coated polyvinyltoluene (PVT) SPA beads were purchased from Amersham Biosciences (Piscataway, N.J.). Cesium chloride was purchased from Shelton Scientific, Inc. (Shelton, Conn.). White, polystyrene, flat-bottom, non-binding surface, 96-well plates were purchased from Corning. All other buffer components were purchased from Sigma (St. Louis, Mo.) unless otherwise indicated.
Enzyme Construction: Full-length wild type HIV-1 integrase (SF1) sequence (amino acids 1-288) was constructed in a pET24a vector (Novagen, Madison, Wis.). The construct was confirmed through DNA sequencing. Enzyme Purification: Full length wild-type HIV Integrase was expressed in E. coli BL21 (DE3) cells and induced with 1 mM isopropyl-1 thio-β-D-galactopyranoside (IPTG) when cells reached an optical density between 0.8-1.0 at 600 nm. Cells were lysed by microfluidation in 50 mM HEPES pH 7.0, 75 mM NaCl, 5 mM DTT, 1 mM 4-(2-Aminoethyl)benzenesulfonylfluoride HCl (AEBSF). Lysate was then centrifuged 20 minutes at 11 k rpm in GSA rotor in Sorvall RC-5B at 4° C. Supernant was discarded and pellet resuspended in 50 mM HEPES pH 7.0, 750 mM NaCl, 5 mM DTT, 1 mM AEBSF and homogenized in a 40 mL Dounce homogenizer for 20 minutes on ice. Homogenate was then centrifuged 20 minutes at 11 k rpm in SS34 rotor in Sorvall RC-5B at 4° C. Supernant was discarded and pellet resuspended in 50 mM HEPES pH 7.0, 750 mM NaCl, 25 mM CHAPS, 5 mM DTT, 1 mM AEBSF. Preparation was then centrifuged 20 minutes at 11 k rpm in SS34 rotor in Sorvall RC-5B at 4° C. Supernant was then diluted 1:1 with 50 mM HEPES pH 7.0, 25 mM CHAPS, 1 mM DTT, 1 mM AEBSF and loaded onto a Q-Sepharose column pre-equilibrated with 50 mM HEPES, pH 7.0, 375 mM NaCl, 25 mM CHAPS, 1 mM DTT, 1 mM AEBSF. The flow through peak was collected and NaCl diluted to 0.1 M with 50 mM HEPES pH 7.0, 25 mM CHAPS, 1 mM DTT, 0.5 mM AEBSF and loaded onto a SP-Sepharose column pre-equilibrated with 50 mM HEPES pH 7.0, 100 mM NaCl, 25 mM CHAPS, 1 mM DTT, 0.5 mM AEBSF. After washing the column with the equilibration buffer, a 100 to 400 mM NaCl gradient was run. The eluted integrase was concentrated and run on a S-300 gel diffusion column using 50 mM HEPES pH 7.0, 500 mM NaCl, 25 mM CHAPS, 1 mM DTT, 0.5 mM AEBSF. The peak from this column was concentrated to 0.76 mg/mL and stored at −70° C. and later used for strand transfer assays. […]

[2] = test system: RF strain of HIV-1 in CEM-SS cells; assay: HIV-1 cell protection assay (XTT dye reduction); assay type: cell-based
Protocol: HIV-1 Cell Protection Assay
The antiviral activities of potential modulator compounds (test compounds) were determined in HIV-1 cell protection assays using the RF strain of HIV-1, CEM-SS cells, and the XTT dye reduction method (Weislow, O. S. et al., J. Natl. Cancer Inst. 81: 577-586 (1989)). Subject cells were infected with HIV-1 RF virus at an moi of 0.025 to 0.819 or mock infected with medium only and added at 2×10^4 cells per well into 96 well plates containing half-log dilutions of test compounds. Six days later, 50 μl of XTT solution (1 mg/ml XTT tetrazolium and […] phenazine methosulfate) were added to the wells and the plates were reincubated for four hours. Viability, as determined by the amount of XTT formazan produced, was quantified spectrophotometrically by absorbance at 450 nm. Data from CPE assays were expressed as the percent of formazan produced in compound-treated cells compared to formazan produced in wells of uninfected, compound-free cells. […] The therapeutic index was calculated by dividing the cytotoxicity (CC50) by the antiviral activity (EC50).

[3] = Human immunodeficiency virus 1, CEM-SS, 144 h, HIV-1 RF, CEM-SS cells, XTT dye reduction, six days, read-out: EC50

| Structure (SMILES) | IC50 [1] | EC50 [2, 3] | EC50 ([2]; Human immunodeficiency virus 1, CEM-SS, 144 h) | EC50 ([2]; HIV-1 RF, CEM-SS cells, XTT dye reduction, six days, read-out: EC50) |
| --- | --- | --- | --- | --- |
| O=C(NO)c1cc2c(CN3CC[C@@H]4C(=O)NC[C@@H]4C3)cn(Cc3ccc(F)cc3F)c2cn1 (racemic) [Example 16, rac 1-(2,4-difluorobenzyl)-N-hydroxy-3-{[(3aR*,7aS*)-1-oxooctahydro-5H-pyrrolo[3,4-c]pyridin-5-yl]methyl}-1H-pyrrolo[2,3-c]pyridine-5-carboxamide] | 108 nM | 12 nM | – | – |
| CONC(=O)c1cc2c(CN3CC[C@@H]4C(=O)NC[C@@H]4C3)cn(Cc3ccc(F)cc3F)c2cn1 (racemic) [Example 17, rac 1-(2,4-Difluorobenzyl)-N-methoxy-3-{[(3aR*,7aS*)-1-oxooctahydro-5H-pyrrolo[3,4-c]pyridin-5-yl]methyl}-1H-pyrrolo[2,3-c]pyridine-5-carboxamide] | 300 nM | 25 nM | – | – |
| CN(O)C(=O)c1cc2c(CN3CC[C@@H]4C(=O)NC[C@@H]4C3)cn(Cc3ccc(F)cc3F)c2cn1 (racemic) [Example 18, rac 1-(2,4-difluorobenzyl)-N-hydroxy-N-methyl-3-{[(3aR*,7aS*)-1-oxooctahydro-5H-pyrrolo[3,4-c]pyridin-5-yl]methyl}-1H-pyrrolo[2,3-c]pyridine-5-carboxamide] | 470 nM | 49 nM | – | – |
| O=C(NO)c1cc2c(CNC3CC3c3ccccc3)cn(Cc3ccc(F)cc3F)c2cn1 (racemic) [Example 75, rac-1-(2,4-Difluorobenzyl)-N-hydroxy-3-({[(1S,2R)-2-phenylcyclopropyl]amino}methyl)-1H-pyrrolo[2,3-c]pyridine-5-carboxamide] | 382 nM | 14 nM | – | – |
| CN(O)C(=O)c1cc2c(CN3CC[C@@H]4CNC(=O)[C@@H]4C3)cn(Cc3ccc(F)cc3F)c2cn1 (relative stereo) [Example 112] | 62 nM | 597 nM | – | – |
| C[C@@H](NCc1cn(Cc2ccc(F)cc2F)c2cnc(C(=O)NO)cc12)[C@@H](O)c1ccccc1 (stereo in doubt) [Example 86, 1-(2,4-Difluorobenzyl)-N-hydroxy-3-{[(2-hydroxy-1-methyl-2-phenylethyl)amino]methyl}-1H-pyrrolo[2,3-c]pyridine-5-carboxamide] | 314 nM | 11 nM | – | – |
| CCOC(=O)N1C2CC[C@@H]1CC(NCc1cn(Cc3ccc(F)cc3F)c3cnc(C(=O)NO)cc13)C2 (stereo in doubt) [Example 97, Ethyl (1R,5S)-3-[({1-(2,4-difluorobenzyl)-5-[(hydroxyamino)carbonyl]-1H-pyrrolo[2,3-c]pyridin-3-yl}methyl)amino]-8-azabicyclo[3.2.1]octane-8-carboxylate] | 311 nM | – | 20 nM | – |
| O=C(NO)c1cc2ccn(Cc3ccc(F)cc3F)c2cn1 [Example 1, 1-(2,4-Difluorobenzyl)-N-hydroxy-1H-pyrrolo[2,3-c]pyridine-5-carboxamide] | 84 nM | 7.95 nM | – | – |
| O=C(NO)c1cc2c(CN3CCOCC3)cn(Cc3ccc(F)cc3F)c2cn1 [Example 2, 1-(2,4-difluorobenzyl)-N-hydroxy-3-(morpholin-4-ylmethyl)-1H-pyrrolo[2,3-c]pyridine-5-carboxamide] | 52.3 nM | 68 nM | – | – |
| O=C(NO)c1cc2c(CNCCO)cn(Cc3ccc(F)cc3F)c2cn1 [Example 3] | 195 nM | – | – | 160 nM |
| CN(C)CCCNCc1cn(Cc2ccc(F)cc2F)c2cnc(C(=O)NO)cc12 [Example 4] | 343 nM | 85 nM | – | – |
| CN1CCN(Cc2cn(Cc3ccc(F)cc3F)c3cnc(C(=O)NO)cc23)CC1 [Example 5, 1-(2,4-Difluorobenzyl)-N-hydroxy-3-[(4-methylpiperazin-1-yl)methyl]-1H pyrrolo[2,3-c]pyridine-5-carboxamide] | 153 nM | 13 nM | – | – |
| O=C(NO)c1cc2c(CN3CCCCC3)cn(Cc3ccc(F)cc3F)c2cn1 [Example 6, 1-(2,4-difluorobenzyl)-N-hydroxy-3-(piperidin-1-ylmethyl)-1H-pyrrolo[2,3-c]pyridine-5-carboxamide] | 108 nM | 5.2 nM | – | – |
| CN(O)C(=O)c1cc2c(CN3CCOCC3)cn(Cc3ccc(F)cc3F)c2cn1 [Example 7, 1-(2,4-Difluorobenzyl)-A-hydroxy-N-methyl-3-(morpholin-4-ylmethyl)-1H-pyrrolo[2,3-c]pyridine-5-carboxamide] | 140 nM | 21 nM | – | – |
| CN(Cc1cccnc1)Cc1cn(Cc2ccc(F)cc2F)c2cnc(C(=O)NO)cc12 [Example 8, 1-(2,4-Difluorobenzyl)-N-hydroxy-3-{[methyl(pyridin-3-ylmethyl)amino]methyl}-1H-pyrrolo[2,3-c]pyridine-5-carboxamide] | 45 nM | 52 nM | – | – |
| O=C(NO)c1cc2c(CN3CCS(=O)(=O)CC3)cn(Cc3ccc(F)cc3F)c2cn1 [Example 9, 1-(2,4-Difluorobenzyl)-3-[(1,1-dioxidothiomorpholin-4-yl)methyl]-N-hydroxy-1H-pyrrolo[2,3-c]pyridine-5-carboxamide] | 20 nM | 7.4 nM | – | – |
| NC(=O)CNCc1cn(Cc2ccc(F)cc2F)c2cnc(C(=O)NO)cc12 [Example 10, 3-{[(2-Amino-2-oxoethyl)amino]methyl}-1-(2,4-difluorobenzyl)-N-hydroxy-1H-pyrrolo[2,3-c]pyridine-5-carboxamide] | 84 nM | 18 nM | – | – |
| O=C(NO)c1cc2c(CNc3cccnc3)cn(Cc3ccc(F)cc3F)c2cn1 [Example 11, 1-(2,4-Difluorobenzyl)-N-hydroxy-3-[(pyridin-3-ylamino)methyl]-1 pyrrolo[2,3-c]pyridine-5-carboxamide] | 37 nM | 15 nM | – | – |
| O=C(NO)c1cc2c(CNC3CCS(=O)(=O)C3)cn(Cc3ccc(F)cc3F)c2cn1 (stereo not drawn) [Example 12, 1-(2,4-Difluorobenzyl)-3-{[(1,1-dioxidotetrahydrothien-3-yl)amino]methyl}-N-hydroxy-1H-pyrrolo[2,3-c]pyridine-5-carboxamide] | 36 nM | 19 nM | – | – |
| O=C(NO)c1cc2cnn(Cc3ccc(F)cc3)c2cn1 [Example 35, 1-(4-Fluorobenzyl)-N-hydroxy-1H-pyrazolo[3,4-c]pyridine-5-carboxamide] | 446 nM | – | – | – |
